Data as given in article PMC12648108, “Phenotypic pleiotropy of missense variants in human B cell confinement receptor P2RY8” (Cell Genomics, 2025).

Experiments:
[1] = target: T1, P2RY8-miniGα13 in complex with Gβ1γ2 (Homo sapiens, UniProt Q86VZ1); assay: cryo-EM structure, […] Å map; assay type: binding; settings: orthosteric pocket; active state, Gβ1γ2 bound; pH 7.5, L-MNG/GDN/CHS, 30 μM GGG
T1 construct: Expi293F TetR; complexed with human Gβ1γ2 from Hi5 cells

P2RY8 [2] = target: T2, P2RY8 (Homo sapiens, UniProt Q86VZ1, L220Y); assay: TRUPATH BRET G13 activation assay; assay type: cell-based; settings: agonist (falling BRET ratio); HEK293T with Gα13-RLuc8, Gβ3, Gγ9-GFP2; HBSS, 20 mM HEPES
T2 construct: full length, 358 codons after start to 358; preprolactin signal + N-terminal OX56 tag (P2A-eGFP vector) for BRET; P2RY8-LgBiT fusion for beta-arrestin; MSCV-GFP vector in WEHI-231; expressed in HEK293T or WEHI-231

P2RY8 [3] = target: T3, P2RY8 (Homo sapiens, UniProt Q86VZ1); assay: migration inhibition of P2RY8-transduced WEHI-231 cells; assay type: cell-based; settings: agonist; CXCL12 50 ng/mL, 37 °C, 3 h
T3 construct: full length, 358 codons after start to 358; preprolactin signal + N-terminal OX56 tag (P2A-eGFP vector) for BRET; P2RY8-LgBiT fusion for beta-arrestin; MSCV-GFP vector in WEHI-231; expressed in HEK293T or WEHI-231

Row | Compound | cryo-EM structure, 2.7 Å map [1] | G protein activation (P2RY8 [2]) | fold less potency than GGG (P2RY8 [3])
1 | CC(C)=CCC/C(C)=C/CC/C(C)=C/CC/C(C)=C/CSC[C@H](NC(=O)CC[C@H](N)C(=O)O)C(=O)NCC(=O)O [S-geranylgeranyl-L-glutathione] | density consistent with GGG located in the canonical class A GPCR orthosteric ligand-binding pocket | The strongly deleterious variant L220Y was unable to drive G protein activation | –
2 | CCCCC/C=C\C\C=C/C=C/C=C/[C@@H](SC[C@H](NC(=O)CC[C@H](N)C(=O)O)C(=O)NCC(=O)O)[C@@H](O)CCCC(=O)O [leukotriene C4] | – | – | ~ 100 fold
